{
  "source": "patent US20260256751A1",
  "about": "“COMBINATION OF BETA-2-ADRENERGIC RECEPTOR AGONISTS AND GLP-1 RECEPTOR AGONISTS FOR USE IN TREATING HYPERGLYCAEMIA” (ATROGI AB, priority 2023, published 2026)",
  "key": {"[1]": {"system": "differentiated L6-myotubes", "experiment": "Glucose uptake screen (Biological example 1 of WO 2019/053427)", "assay_type": "cell-based", "settings": "compound at 10 μM, activity relative to isoproterenol at 10 μM, read-out: Biological example 1 of WO 2019/053427 (GU)", "how_it_was_run": "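Uptake was read out as ^3H-2-deoxyglucose (50 nM, 10 min) radioactivity in NaOH lysates. Beforehand, overnight-starved, differentiated L6 myotubes received compound at 1×10^−5 M with ICI-118551 present for 1 h 40 min, followed by fresh agonist for a further 20 min in glucose-free medium.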"}, "[2]": {"system": "differentiated L6-myotubes", "experiment": "cAMP production relative to isoprenaline (Biological example 2 of WO 2019/053427)", "assay_type": "cell-based", "settings": "0.25 h, compound at 10 μM, activity relative to isoproterenol at 10 μM", "how_it_was_run": "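Values are cAMP levels relative to isoprenaline at equal concentration (final 1×10^−5 M for both). Stimulation lasted 15 min in differentiated L6 myotubes, using HBSS buffer (pH 7.4) containing 1 mM IBMX, 5 mM HEPES and 1% BSA.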"}},
  "data": [
    {"smiles": "O[C@H](c1cncc(F)c1)[C@H]1CC[C@@H](Cc2ccc(Cl)cc2)N1", "note": "[Compound 404, (R)-{(2R,5S)-5-[(p-chlorophenyl)methyl]-2-pyrrolidinyl}(5-fluoro-3-pyridyl)methanol]", "values": [
      {"measurement": "Emax at 10 µM", "setting": "[1]", "result": "> 75", "unit": "%"},
      {"measurement": "Emax at 10 µM", "setting": "[2]", "result": "< 25", "unit": "%"}
    ]},
    {"smiles": "O[C@@H](c1cncc(F)c1)[C@H]1CC[C@H](Cc2ccc(Cl)cc2)N1", "note": "[Compound 405, (S)-{(2R,5R)-5-[(p-chlorophenyl)methyl]-2-pyrrolidinyl}(5-fluoro-3-pyridyl)methanol]", "values": [
      {"measurement": "Emax at 10 µM", "setting": "[1]", "result": "> 75", "unit": "%"},
      {"measurement": "Emax at 10 µM", "setting": "[2]", "result": "< 25", "unit": "%"}
    ]},
    {"smiles": "O[C@H](c1cncc(F)c1)[C@H]1CC[C@H](Cc2ccc(Cl)cc2)N1", "note": "[Compound 406, (R)-{(2R,5R)-5-[(p-chlorophenyl)methyl]-2-pyrrolidinyl}(5-fluoro-3-pyridyl)methanol]", "values": [
      {"measurement": "Emax at 10 µM", "setting": "[1]", "result": "> 75", "unit": "%"},
      {"measurement": "Emax at 10 µM", "setting": "[2]", "result": "< 25", "unit": "%"}
    ]},
    {"smiles": "CCOC(=O)CO[C@H]1CC[C@@H](C(C)(C)NC[C@H](O)c2cccc(F)c2)CC1", "note": "[Compound 407, ethyl [(1S,4s)-4-{1-[(R)-2-(m-fluorophenyl)-2-hydroxyethylamino]-1-methylethyl}cyclohexyloxy]acetate]", "values": [
      {"measurement": "Emax at 10 µM", "setting": "[1]", "result": "50 to 75", "unit": "%"},
      {"measurement": "Emax at 10 µM", "setting": "[2]", "result": "< 25", "unit": "%"}
    ]},
    {"smiles": "CC(C)(NC[C@H](O)c1cccc(F)c1)[C@H]1CC[C@@H](OCC(=O)O)CC1", "note": "[Compound 408, [(1S,4s)-4-{1-[(R)-2-(m-fluorophenyl)-2-hydroxyethylamino]-1-methylethyl}cyclohexyloxy]acetic acid]", "values": [
      {"measurement": "Emax at 10 µM", "setting": "[1]", "result": "50 to 75", "unit": "%"},
      {"measurement": "Emax at 10 µM", "setting": "[2]", "result": "< 25", "unit": "%"}
    ]},
    {"smiles": "CCOC(=O)CO[C@H]1CC[C@H](C(C)(C)NC[C@H](O)c2cncc(F)c2)CC1", "note": "[Compound 409, ethyl [(1R,4r)-4-{1-[(R)-2-(5-fluoro-3-pyridyl)-2-hydroxyethylamino]-1-methylethyl}cyclohexyloxy]acetate]", "values": [
      {"measurement": "Emax at 10 µM", "setting": "[1]", "result": "> 75", "unit": "%"},
      {"measurement": "Emax at 10 µM", "setting": "[2]", "result": "< 25", "unit": "%"}
    ]},
    {"smiles": "CO[C@H]1CC[C@H](CCC23CCC([C@@H](O)c4cccc(F)c4)(CC2)N3)CC1", "note": "[Compound 410, (S)-(m-fluorophenyl)(4-{2-[(1r,4R)-4-methoxycyclohexyl]ethyl}-7-azabicyclo[2.2.1]hept-1-yl)methanol]", "values": [
      {"measurement": "Emax at 10 µM", "setting": "[1]", "result": "50 to 75", "unit": "%"},
      {"measurement": "Emax at 10 µM", "setting": "[2]", "result": "< 25", "unit": "%"}
    ]},
    {"smiles": "CO[C@H]1CC[C@H](CCC23CCC([C@H](O)c4cccc(F)c4)(CC2)N3)CC1", "note": "[Compound 411, (R)-(m-fluorophenyl)(4-{2-[(1r,4S)-4-methoxycyclohexyl]ethyl}-7-azabicyclo[2.2.1]hept-1-yl)methanol]", "values": [
      {"measurement": "Emax at 10 µM", "setting": "[1]", "result": "> 75", "unit": "%"},
      {"measurement": "Emax at 10 µM", "setting": "[2]", "result": "50 to 75", "unit": "%"}
    ]},
    {"smiles": "O[C@@H](c1cccc(F)c1)C12CCC(Cc3ccc(F)cc3)(CC1)N2", "note": "[Compound 412, (S)-(m-fluorophenyl){4-[(p-fluorophenyl)methyl]-7-azabicyclo[2.2.1]hept-1-yl}methanol]", "values": [
      {"measurement": "Emax at 10 µM", "setting": "[1]", "result": "50 to 75", "unit": "%"},
      {"measurement": "Emax at 10 µM", "setting": "[2]", "result": "< 25", "unit": "%"}
    ]},
    {"smiles": "O[C@H](c1cccc(F)c1)C12CCC(Cc3ccc(F)cc3)(CC1)N2", "note": "[Compound 413, (R)-(m-florophenyl){4-[(p-fluorophenyl)methyl]-7-azabicyclo[2.2.1]hept-1-yl}methanol]", "values": [
      {"measurement": "Emax at 10 µM", "setting": "[1]", "result": "> 75", "unit": "%"},
      {"measurement": "Emax at 10 µM", "setting": "[2]", "result": "< 25", "unit": "%"}
    ]},
    {"smiles": "CC(C)(C[C@H]1CC[C@@H](NC(=O)OC(C)(C)C)CC1)NC[C@H](O)c1cccc(C#N)n1", "note": "[Compound 414]", "values": [
      {"measurement": "Emax at 10 µM", "setting": "[1]", "result": "50 to 75", "unit": "%"},
      {"measurement": "Emax at 10 µM", "setting": "[2]", "result": "< 25", "unit": "%"}
    ]},
    {"smiles": "CC(C)(C[C@H]1CC[C@H](N)CC1)NC[C@@H](O)c1cccc(C#N)n1", "note": "[Compound 415, 6-[(R)-2-{1,1-dimethyl-2-[(1r,4R)-4-aminocyclohexyl]ethylamino}-1-hydroxyethyl]-2-pyridinecarbonitrile]", "values": [
      {"measurement": "Emax at 10 µM", "setting": "[1]", "result": "50 to 75", "unit": "%"},
      {"measurement": "Emax at 10 µM", "setting": "[2]", "result": "< 25", "unit": "%"}
    ]},
    {"smiles": "CC(C)(C[C@H]1CC[C@@H](N)CC1)NC[C@@H](O)c1cccc(C#N)n1", "note": "[Compound 416, 6-[(R)-2-{1,1-dimethyl-2-[(1s,4S)-4-aminocyclohexyl]ethylamino}-1-hydroxyethyl]-2-pyridinecarbonitrile]", "values": [
      {"measurement": "Emax at 10 µM", "setting": "[1]", "result": "50 to 75", "unit": "%"},
      {"measurement": "Emax at 10 µM", "setting": "[2]", "result": "< 25", "unit": "%"}
    ]},
    {"smiles": "CC(C)(C[C@H]1CC[C@H](N)CC1)NC[C@H](O)c1cccc(C#N)n1", "note": "[Compound 417, 6-[(S)-2-{1,1-dimethyl-2-[(1r,4S)-4-aminocyclohexyl]ethylamino}-1-hydroxyethyl]-2-pyridinecarbontirile]", "values": [
      {"measurement": "Emax at 10 µM", "setting": "[1]", "result": "> 75", "unit": "%"},
      {"measurement": "Emax at 10 µM", "setting": "[2]", "result": "25 to 50", "unit": "%"}
    ]},
    {"smiles": "CC(C)(C[C@H]1CC[C@@H](N)CC1)NC[C@H](O)c1cccc(C#N)n1", "note": "[Compound 418, 6-[(S)-2-{1,1-dimethyl-2-[(1s,4R)-4-aminocyclohexyl]ethylamino}-1-hydroxyethyl]-2-pyridinecarbonitrile]", "values": [
      {"measurement": "Emax at 10 µM", "setting": "[1]", "result": "50 to 75", "unit": "%"},
      {"measurement": "Emax at 10 µM", "setting": "[2]", "result": "< 25", "unit": "%"}
    ]},
    {"smiles": "CC(C)(NC[C@H](O)c1cncc(F)c1)[C@H]1CC[C@H](OCC(=O)O)CC1", "note": "[Compound 419, [(1R,4r)-4-{1-[(R)-2-(5-fluoro-3-pyridyl)-2-hydroxyethylamino]-1-methylethyl}cyclohexyloxy]aetic acid]", "values": [
      {"measurement": "Emax at 10 µM", "setting": "[1]", "result": "50 to 75", "unit": "%"},
      {"measurement": "Emax at 10 µM", "setting": "[2]", "result": "< 25", "unit": "%"}
    ]},
    {"smiles": "CC(C)(C[C@H]1CC[C@H](NC(=O)OC(C)(C)C)CC1)NC[C@H](O)c1cccc(F)c1", "note": "[Compound 420]", "values": [
      {"measurement": "Emax at 10 µM", "setting": "[1]", "result": "50 to 75", "unit": "%"},
      {"measurement": "Emax at 10 µM", "setting": "[2]", "result": "25 to 50", "unit": "%"}
    ]},
    {"smiles": "CC(=O)N[C@H]1CC[C@@H](CC(C)(C)NC[C@H](O)c2cccc(C#N)n2)CC1", "note": "[Compound 421, N-[(1R,4s)-4-{2-[(S)-2-(6-cyano-2-pyridyl)-2-hydroxyethylamino]-2-methylpropyl}cyclohexyl]acetamide]", "values": [
      {"measurement": "Emax at 10 µM", "setting": "[1]", "result": "> 75", "unit": "%"},
      {"measurement": "Emax at 10 µM", "setting": "[2]", "result": "< 25", "unit": "%"}
    ]},
    {"smiles": "CC(C)(C[C@H]1CC[C@@H](NS(C)(=O)=O)CC1)NC[C@H](O)c1cccc(C#N)n1", "note": "[Compound 422, 6-[(S)-2-{1,1-dimethyl-2-[(1s,4R)-4-(mesylamino)cylcohexyl]ethylamino}-1-hydroxyethyl]-2-pyridinecarbonitrile]", "values": [
      {"measurement": "Emax at 10 µM", "setting": "[1]", "result": "50 to 75", "unit": "%"},
      {"measurement": "Emax at 10 µM", "setting": "[2]", "result": "< 25", "unit": "%"}
    ]},
    {"smiles": "CC(=O)N[C@H]1CC[C@@H](CC(C)(C)NC[C@@H](O)c2cccc(C#N)n2)CC1", "note": "[Compound 423, N-[(1S,4s)-4-{2-[(R)-2-(6-cyano-2-pyridyl)-2-hydroxyethylamino]-2-methylpropyl}cyclohexyl]acetamide]", "values": [
      {"measurement": "Emax at 10 µM", "setting": "[1]", "result": "< 25", "unit": "%"},
      {"measurement": "Emax at 10 µM", "setting": "[2]", "result": "< 25", "unit": "%"}
    ]},
    {"smiles": "CC(C)(C[C@H]1CC[C@@H](NS(C)(=O)=O)CC1)NC[C@@H](O)c1cccc(C#N)n1", "note": "[Compound 424, 6-[(R)-2-{1,1-dimethyl-2-[(1s,4S)-4-(mesylamino)cyclohexyl]ethylamino}-1-hydroxyethyl]-2-pyridinecarbonitrile]", "values": [
      {"measurement": "Emax at 10 µM", "setting": "[1]", "result": "25 to 50", "unit": "%"},
      {"measurement": "Emax at 10 µM", "setting": "[2]", "result": "< 25", "unit": "%"}
    ]},
    {"smiles": "CC(=O)N[C@H]1CC[C@H](CC(C)(C)NC[C@H](O)c2cccc(C#N)n2)CC1", "note": "[Compound 425, N-[(1S,4r)-4-{2-[(S)-2-(6-cyano-2-pyridyl)-2-hydroxyethylamino]-2-methylpropyl}cyclohexyl]acetamide]", "values": [
      {"measurement": "Emax at 10 µM", "setting": "[1]", "result": "> 75", "unit": "%"},
      {"measurement": "Emax at 10 µM", "setting": "[2]", "result": "25 to 50", "unit": "%"}
    ]},
    {"smiles": "CC(C)(C[C@H]1CC[C@H](NS(C)(=O)=O)CC1)NC[C@H](O)c1cccc(C#N)n1", "note": "[Compound 426, 6-[(S)-2-{1,1-dimethyl-2-[(1r,4S)-4-(mesylamino)cyclohexyl]ethylamino}-1-hydroxyethyl]-2-pyridinecarbonitrile]", "values": [
      {"measurement": "Emax at 10 µM", "setting": "[1]", "result": "> 75", "unit": "%"},
      {"measurement": "Emax at 10 µM", "setting": "[2]", "result": "< 25", "unit": "%"}
    ]},
    {"smiles": "CC(=O)N[C@H]1CC[C@H](CC(C)(C)NC[C@@H](O)c2cccc(C#N)n2)CC1", "note": "[Compound 427, N-[(1R,4r)-4-{2-[(R)-2-(6-cyano-2-pyridyl)-2-hydroxyethylamino]-2-methylpropyl}cyclohexyl]acetamide]", "values": [
      {"measurement": "Emax at 10 µM", "setting": "[1]", "result": "< 25", "unit": "%"},
      {"measurement": "Emax at 10 µM", "setting": "[2]", "result": "< 25", "unit": "%"}
    ]}
  ]
}
